pIC50, pKi: −log10 of the molar value.
Key:
Adenosine receptor A1 = molecular target: T1, Adenosine receptor A1 (Homo sapiens, UniProt P30542); assay: Inhibitory concentration against Adenosine A1 receptor
T1 sequence (P30542 whole entry): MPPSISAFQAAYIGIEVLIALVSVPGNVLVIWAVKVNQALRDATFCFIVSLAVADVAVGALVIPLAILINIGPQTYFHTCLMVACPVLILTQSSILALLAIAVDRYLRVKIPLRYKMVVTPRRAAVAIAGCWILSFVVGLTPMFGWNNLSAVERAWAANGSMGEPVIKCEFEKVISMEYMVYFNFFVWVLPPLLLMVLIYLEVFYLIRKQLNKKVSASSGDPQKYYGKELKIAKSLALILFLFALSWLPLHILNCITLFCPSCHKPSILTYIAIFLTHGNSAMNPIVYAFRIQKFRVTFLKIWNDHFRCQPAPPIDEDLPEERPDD

[1] = molecular target: GABA-A receptor; anion channel; assay: Inhibition of Gamma-aminobutyric acid receptor; type: protein-complex assay
Adrenergic receptor beta = Adrenergic receptor beta (Homo sapiens, UniProt P08588+P07550+P13945); assay: Inhibitory concentration against Beta adrenergic receptor; type: protein assay
Cavia porcellus [2] = assay: Combined airway obstructive effect against LTD4 stimulated by aerosolized antigen challenge in guinea pigs after peroral administration; type: functional
Mu-type opioid receptor = Mu-type opioid receptor (Homo sapiens, UniProt P35372); assay: Inhibitory concentration against Opioid receptor mu 1
Mu-type opioid receptor, sequence (P35372 whole entry): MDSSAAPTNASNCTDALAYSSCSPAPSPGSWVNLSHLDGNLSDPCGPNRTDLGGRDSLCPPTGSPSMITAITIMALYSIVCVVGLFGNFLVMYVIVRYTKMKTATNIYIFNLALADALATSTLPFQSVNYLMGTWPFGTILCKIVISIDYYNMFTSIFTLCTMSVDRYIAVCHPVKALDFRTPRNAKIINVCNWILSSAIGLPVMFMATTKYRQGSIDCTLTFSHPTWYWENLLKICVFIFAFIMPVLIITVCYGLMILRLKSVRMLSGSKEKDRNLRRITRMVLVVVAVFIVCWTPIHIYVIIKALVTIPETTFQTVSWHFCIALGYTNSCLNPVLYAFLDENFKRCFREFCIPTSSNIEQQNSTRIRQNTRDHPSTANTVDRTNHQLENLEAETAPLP

Cavia porcellus [3] = assay: In vivo bronchoprotective effect against LTD4 induced bronchoconstriction in guinea pigs after intravenous administration; type: functional
[4] = molecular target: T2, Adrenergic receptor alpha-1 (Homo sapiens, UniProt P35348+P25100+P35368); assay: Inhibitory concentration against Alpha-1 adrenergic receptor; type: protein assay
T2 sequence (P35348 whole entry): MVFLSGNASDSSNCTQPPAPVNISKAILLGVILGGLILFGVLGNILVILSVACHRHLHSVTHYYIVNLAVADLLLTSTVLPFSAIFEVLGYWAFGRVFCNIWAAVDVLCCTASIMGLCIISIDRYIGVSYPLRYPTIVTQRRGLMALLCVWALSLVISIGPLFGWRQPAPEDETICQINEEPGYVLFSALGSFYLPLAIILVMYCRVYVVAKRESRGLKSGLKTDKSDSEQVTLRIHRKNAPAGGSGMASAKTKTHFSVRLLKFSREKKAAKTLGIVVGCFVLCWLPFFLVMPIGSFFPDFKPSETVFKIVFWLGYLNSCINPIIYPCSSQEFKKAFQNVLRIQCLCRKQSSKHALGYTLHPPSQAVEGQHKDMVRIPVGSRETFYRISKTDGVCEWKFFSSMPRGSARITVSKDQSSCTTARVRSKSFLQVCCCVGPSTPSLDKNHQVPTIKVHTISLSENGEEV
T2 sequence (P25100 whole entry): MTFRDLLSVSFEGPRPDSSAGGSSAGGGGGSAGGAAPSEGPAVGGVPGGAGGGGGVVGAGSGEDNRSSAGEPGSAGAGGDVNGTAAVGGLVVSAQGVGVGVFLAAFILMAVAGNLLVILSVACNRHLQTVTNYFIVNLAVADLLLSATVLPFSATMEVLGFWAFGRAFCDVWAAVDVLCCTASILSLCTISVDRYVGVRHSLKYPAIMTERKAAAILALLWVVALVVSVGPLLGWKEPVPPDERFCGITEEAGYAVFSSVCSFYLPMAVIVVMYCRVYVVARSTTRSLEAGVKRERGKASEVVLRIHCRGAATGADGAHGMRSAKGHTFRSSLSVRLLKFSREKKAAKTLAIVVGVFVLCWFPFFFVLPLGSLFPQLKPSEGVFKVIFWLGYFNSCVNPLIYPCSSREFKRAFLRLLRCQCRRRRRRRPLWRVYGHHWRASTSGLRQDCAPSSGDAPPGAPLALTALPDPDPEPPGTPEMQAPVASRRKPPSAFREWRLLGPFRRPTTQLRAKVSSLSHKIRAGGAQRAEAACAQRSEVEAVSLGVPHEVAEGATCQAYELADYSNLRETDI
T2 sequence (P35368 whole entry): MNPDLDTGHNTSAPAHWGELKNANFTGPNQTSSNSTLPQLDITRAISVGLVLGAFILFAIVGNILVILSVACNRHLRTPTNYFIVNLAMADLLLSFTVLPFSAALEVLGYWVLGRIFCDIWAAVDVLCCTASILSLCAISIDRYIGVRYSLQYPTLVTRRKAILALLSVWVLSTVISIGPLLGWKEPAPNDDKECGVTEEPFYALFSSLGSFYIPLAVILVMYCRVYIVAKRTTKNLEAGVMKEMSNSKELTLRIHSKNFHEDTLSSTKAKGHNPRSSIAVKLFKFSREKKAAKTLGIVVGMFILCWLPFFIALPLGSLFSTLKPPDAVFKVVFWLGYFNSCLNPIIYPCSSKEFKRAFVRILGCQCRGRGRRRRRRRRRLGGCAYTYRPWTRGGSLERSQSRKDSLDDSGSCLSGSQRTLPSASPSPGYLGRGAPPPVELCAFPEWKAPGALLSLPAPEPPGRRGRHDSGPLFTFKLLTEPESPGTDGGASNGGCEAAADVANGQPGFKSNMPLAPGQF

D(2) dopamine receptor = D(2) dopamine receptor (Homo sapiens, UniProt P14416); assay: Inhibitory concentration against Dopamine receptor D2
D(2) dopamine receptor, sequence (P14416 whole entry): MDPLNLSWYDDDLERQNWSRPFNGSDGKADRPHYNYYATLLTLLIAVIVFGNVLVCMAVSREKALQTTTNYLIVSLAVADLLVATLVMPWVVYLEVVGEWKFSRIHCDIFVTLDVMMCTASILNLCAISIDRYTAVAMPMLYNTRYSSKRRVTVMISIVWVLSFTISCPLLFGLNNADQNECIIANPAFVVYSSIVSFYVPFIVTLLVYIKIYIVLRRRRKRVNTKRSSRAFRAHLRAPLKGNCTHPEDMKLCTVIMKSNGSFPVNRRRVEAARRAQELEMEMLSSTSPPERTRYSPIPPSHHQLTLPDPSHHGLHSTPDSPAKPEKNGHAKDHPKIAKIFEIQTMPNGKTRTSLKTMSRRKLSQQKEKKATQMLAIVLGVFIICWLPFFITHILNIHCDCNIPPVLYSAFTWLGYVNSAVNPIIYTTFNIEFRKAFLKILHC

Histamine H1 receptor = Histamine H1 receptor (Homo sapiens, UniProt P35367); assay: Inhibitory concentration against H1 receptor
Histamine H1 receptor, sequence (P35367 whole entry): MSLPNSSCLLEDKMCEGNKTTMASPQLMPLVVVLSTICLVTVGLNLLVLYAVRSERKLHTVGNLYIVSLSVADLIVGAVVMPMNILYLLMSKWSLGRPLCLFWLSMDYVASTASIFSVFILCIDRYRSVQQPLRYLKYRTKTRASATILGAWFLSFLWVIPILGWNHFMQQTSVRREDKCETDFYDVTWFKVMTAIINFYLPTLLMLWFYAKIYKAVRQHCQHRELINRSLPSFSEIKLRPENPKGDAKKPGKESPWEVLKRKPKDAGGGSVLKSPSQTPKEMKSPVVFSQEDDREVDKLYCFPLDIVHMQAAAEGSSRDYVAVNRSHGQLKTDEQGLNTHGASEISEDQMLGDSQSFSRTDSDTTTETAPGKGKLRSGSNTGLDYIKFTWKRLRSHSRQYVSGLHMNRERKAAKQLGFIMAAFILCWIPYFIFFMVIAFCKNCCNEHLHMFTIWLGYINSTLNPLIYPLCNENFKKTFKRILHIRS

[5] = molecular target: T3, Cysteinyl leukotriene receptor 1 (Cavia porcellus, UniProt Q2NNR5); assay: Displacement of [3H]leukotriene D4 (LTD4) from receptor in guinea pig lung membranes; type: cell membranes, Membrane
T3 sequence (Q2NNR5 whole entry): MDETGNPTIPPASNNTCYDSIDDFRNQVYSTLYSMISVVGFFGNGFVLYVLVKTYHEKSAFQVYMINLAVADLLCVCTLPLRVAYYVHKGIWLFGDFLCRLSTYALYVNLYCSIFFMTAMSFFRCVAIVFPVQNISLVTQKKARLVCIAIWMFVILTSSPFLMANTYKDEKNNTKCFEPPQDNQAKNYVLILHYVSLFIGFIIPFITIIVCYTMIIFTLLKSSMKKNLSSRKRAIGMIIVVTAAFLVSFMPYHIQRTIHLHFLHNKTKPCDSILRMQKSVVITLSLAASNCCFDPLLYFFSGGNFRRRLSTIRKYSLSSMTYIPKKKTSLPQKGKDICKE

[6] = molecular target: T4, Adrenergic receptor alpha-2 (Homo sapiens, UniProt P08913+P18825+P18089); assay: Inhibitory concentration against Alpha-2 adrenergic receptor; type: protein assay
T4 sequence (P08913 whole entry): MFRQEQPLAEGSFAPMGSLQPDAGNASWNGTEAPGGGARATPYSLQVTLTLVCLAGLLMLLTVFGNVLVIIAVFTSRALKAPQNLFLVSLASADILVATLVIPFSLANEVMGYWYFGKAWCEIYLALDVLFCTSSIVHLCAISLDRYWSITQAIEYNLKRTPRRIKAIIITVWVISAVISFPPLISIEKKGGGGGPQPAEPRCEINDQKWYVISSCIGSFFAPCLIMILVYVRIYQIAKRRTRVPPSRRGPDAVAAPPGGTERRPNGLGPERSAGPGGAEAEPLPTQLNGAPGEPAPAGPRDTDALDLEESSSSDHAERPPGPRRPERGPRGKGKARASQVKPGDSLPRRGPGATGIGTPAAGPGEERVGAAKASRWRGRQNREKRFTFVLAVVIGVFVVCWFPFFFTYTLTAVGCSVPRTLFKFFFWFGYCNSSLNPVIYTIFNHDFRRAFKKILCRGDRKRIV
T4 sequence (P18825 whole entry): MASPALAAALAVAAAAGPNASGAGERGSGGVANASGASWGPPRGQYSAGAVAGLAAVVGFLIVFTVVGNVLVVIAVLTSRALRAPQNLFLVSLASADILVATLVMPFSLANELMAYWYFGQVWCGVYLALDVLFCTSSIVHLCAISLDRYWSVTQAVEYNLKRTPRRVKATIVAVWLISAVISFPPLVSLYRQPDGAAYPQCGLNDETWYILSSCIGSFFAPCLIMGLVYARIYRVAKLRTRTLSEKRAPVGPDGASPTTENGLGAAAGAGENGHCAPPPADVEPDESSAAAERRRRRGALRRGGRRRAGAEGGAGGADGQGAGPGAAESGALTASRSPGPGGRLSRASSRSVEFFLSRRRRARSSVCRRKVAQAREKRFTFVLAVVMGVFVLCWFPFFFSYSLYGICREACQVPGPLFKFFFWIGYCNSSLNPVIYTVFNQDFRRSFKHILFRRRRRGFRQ
T4 sequence (P18089 whole entry): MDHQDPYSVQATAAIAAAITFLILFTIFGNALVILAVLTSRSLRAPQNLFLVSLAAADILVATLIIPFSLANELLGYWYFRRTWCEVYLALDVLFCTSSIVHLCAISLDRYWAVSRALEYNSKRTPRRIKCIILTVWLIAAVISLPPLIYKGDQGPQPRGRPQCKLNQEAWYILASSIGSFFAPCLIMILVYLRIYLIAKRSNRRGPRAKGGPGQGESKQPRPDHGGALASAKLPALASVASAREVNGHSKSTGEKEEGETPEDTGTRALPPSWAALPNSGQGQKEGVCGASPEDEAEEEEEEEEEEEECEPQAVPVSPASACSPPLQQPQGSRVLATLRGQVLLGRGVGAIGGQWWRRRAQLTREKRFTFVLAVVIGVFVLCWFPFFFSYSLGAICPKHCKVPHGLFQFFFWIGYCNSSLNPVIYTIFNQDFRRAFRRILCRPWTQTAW

Cavia porcellus [7] = assay: In vivo bronchoprotective effect against […] induced bronchoconstriction in guinea pigs after intravenous administration; type: functional
[8] = molecular target: Serotonin 2 (5-HT2) receptor (Homo sapiens, UniProt P41595+P28223+P28335); assay: Inhibitory concentration against 5-hydroxytryptamine 2 receptor; type: protein assay
[9] = molecular target: Muscarinic acetylcholine receptor; assay: Inhibitory concentration against muscarinic receptor; type: protein assay
[10] = Inhibitory concentration against 5-hydroxytryptamine 1 receptor
[11] = molecular target: T3, Cysteinyl leukotriene receptor 1; assay: Displacement of [3H]LTD4 from receptor in guinea pig lung membranes; type: cell membranes, Membrane
Cavia porcellus [12] = assay: In vivo bronchoprotective effect against PAF induced bronchoconstriction in guinea pigs after intravenous administration; type: functional

pIC50 (Adenosine receptor A1)	pIC50 [1]	IC50 (Adrenergic receptor beta)	pIC50 (Mu-type opioid receptor)	IC50 [4]	pIC50 (D(2) dopamine receptor)	pIC50 (Histamine H1 receptor)	pKi [5]	IC50 [6]	IC50 [8]	IC50 [9]	pIC50 [10]	pKi [11]	Structure (SMILES)	ED50 (Cavia porcellus [2])	ED50 (Cavia porcellus [3])	ED50 (Cavia porcellus [7])	ED50 (Cavia porcellus [12])
< 5.00	< 5.00	> 10 µM	< 5.00	> 10 µM	< 5.00	< 5.00	–	> 10 µM	> 10 µM	> 10 µM	< 5.00	7.70	Cc1nc2cnccc2n1-c1ccc(OCc2cccc(/C=C/c3ccc4ccc(Cl)cc4n3)c2)cc1	1.7 mg/kg	0.27 mg/kg	–	0.26 mg/kg
–	–	–	–	–	–	–	< 4.52	–	–	–	–	–	CCOC(=O)C1=C(c2ccc(-n3c(C)nc4cnccc43)cc2)NC(C)=C(C(=O)Nc2ccccn2)C1c1ccccc1Cl (configuration not stated)	1.9 mg/kg	–	0.33 mg/kg	–

Second part, the molecule before the results:

Structure (SMILES)	pIC50 (Adenosine receptor A1)	pIC50 [1]	IC50 (Adrenergic receptor beta)	pIC50 (Mu-type opioid receptor)	IC50 [4]	pIC50 (D(2) dopamine receptor)	pIC50 (Histamine H1 receptor)	pKi [5]	IC50 [6]	IC50 [8]	IC50 [9]	pIC50 [10]	pKi [11]	ED50 (Cavia porcellus [2])	ED50 (Cavia porcellus [3])	ED50 (Cavia porcellus [7])	ED50 (Cavia porcellus [12])
COc1cc(C(=O)NS(=O)(=O)c2ccccc2C)ccc1Cc1cn(C)c2ccc(NC(=O)OC3CCCC3)cc12 [ZAFIRLUKAST]	< 5.00	< 5.00	> 10 µM	< 5.00	> 10 µM	< 5.00	–	–	–	–	–	–	–	3.5 mg/kg	0.21 mg/kg	–	–
Cc1nc2cnccc2n1-c1ccc(OCc2cccc(/C=C/c3nc4cc(F)ccc4s3)c2)cc1	< 5.00	< 5.00	> 10 µM	< 5.00	> 10 µM	< 5.00	< 5.00	7.47	> 10 µM	> 10 µM	> 10 µM	< 5.00	–	1.8 mg/kg	0.46 mg/kg	0.16 mg/kg	–
Cc1nc2cnccc2n1-c1ccc(OCc2cccc(/C=C/c3ccc4ccccc4n3)c2)cc1	–	–	–	–	–	–	–	7.14	–	–	–	–	–	–	–	–	–
